Results published in EP2902035B1, “Cell-permeable peptide inhibitors of the JNK signal transduction pathway for use in the treatment of inflammatory eye diseases” (Xigen Inflammation Ltd., priority 2010, dated 2012).

Assays:
[1] = tested on: c-Jun phosphorylation (JNK pathway); test: Western-Blot analysis of c-Jun phosphorylation in RPE/choroid in EIU; format: in vivo, Lewis rats; settings: for relative band intensity for phospho c-Jun in comparison to tubulin (densitometry): EIU
Description: Retinas and RPE/choroid/sclera complexes were carefully dissected out on enucleated eyes, snap frozen and stored at -80°C until being used for RT-PCR and Western-Blot analyses.
Retinas and RPE/choroid/sclera complexes were also collected at 24 hours to analyze iNOS mRNA levels by RT-PCR and c-Jun phosphorylation state by Western-Blot. Tissues were collected only from eyes treated by IV (intravenous) injection of vehicle, IV injection of the JNK-inhibitor (poly-)peptide of SEQ ID NO: 11, IVT (intravitreal) injection of vehicle and IVT injection of the JNK-inhibitor (poly-)peptide of SEQ ID NO: 11 (n=2 eyes per condition collected from separate rats). Eyes were selected so that their EIU clinical score was representative of the mean of the experimental group they belong to, i.e 3 for eyes treated by IV and IVT injection of vehicle and 2 for eyes treated by IV or IVT injection of the JNK-inhibitor (poly-)peptide of SEQ ID NO: 11.
RPE/choroid/sclera complexes and neuroretinas (2 per experimental group) were snap frozen immediately after dissection and stored at -80°C until use. Tissues were homogenized in 500 µL of lysis buffer (MOPS SDS Running Buffer, Invitrogen, Cergy-Pontoise, France) supplemented with protease inhibitor cocktail (Roche Diagnostics, Meylan, France) (one tablet for 50 mL). After addition of LDS Sample Buffer (Invitrogen) and heating for 5 min at 100°C, equal amounts of proteins were subjected to electrophoresis in a NuPAGE 4-12% Bis-Tris gel (Invitrogen) using MOPS SDS Running Buffer. The bands obtained were then electrotransferred onto nitrocellulose membranes (Schleicher & Schuell BioScience, Dassel, Germany).
Western-blot analyses were carried out to analyze the effect of the JNK-inhibitor (poly-)peptide of SEQ ID NO: 11 on the three mitogen-activated protein kinase (MAPK) pathways. To analyze the JNK pathway, blots were sequentially incubated with a rabbit Phospho-c-Jun (Ser63) primary antibody (or Phospho-c-Jun (Ser73) antibody) and an anti-rabbit IgG HRP-linked secondary antibody according to the manufacturer's instruction (PhosphoPlus c-Jun (Ser63) II and c-Jun (Ser73) antibody kit (9260) purchased from Cell Signaling Technology (Ozyme, St Quentin Yvelines, France)). Bands were visualized using the ECL Western Blotting Detection Reagents Kit (Amersham Biosciences, Orsay, France). […] The relative band intensity for phospho c-Jun (Ser 63 or Ser73) was calculated in comparison to that for -tubulin after densitometry analysis (ImageJ software).

[2] = Ocular biodistribution by immunohistochemistry against SEQ ID NO: 11; format: in vivo, Lewis rats
Description: For immunohistochemistry, eyeballs were collected and fixed for 1h at room temperature in phosphate buffered saline (PBS) containing 4% paraformaldehyde before being rinsed overnight in PBS. The next day, samples were embedded and frozen in optimal cutting-temperature (OCT) compound (Tissue-Tek®, Sakura Finetek, Zoeterwoude, Netherland) and stored at -80°C. Frozen antero-posterior sections of eyes (10 µm thick) were performed at the optic nerve level using a cryostat (Leica CM 3050S, Rueil-Malmaison, France) and mounted on super-frost slides for immunohistochemical analysis.
A second set of experiment was designed to evaluate the anti-inflammatory effect of the JNK-inhibitor (poly-)peptide of SEQ ID NO: 11 at the cellular and tissue level as well as the biodistribution of this molecule 24 hours after administration. Rats were randomized into 11 experimental groups. 6 groups of rats with uveitis: untreated uveitic rats, rats injected intravenously with NaCl or the JNK-inhibitor (poly-)peptide of SEQ ID NO: 11 and rats injected intravitreously with the vehicle, the JNK-inhibitor (poly-)peptide of SEQ ID NO: 11 or dexamethasone. The 5 additional groups without uveitis were: untreated healthy rats, rats treated by NaCl IV or the JNK-inhibitor (poly-)peptide of SEQ ID NO: 11 IV and rats injected IVT with NaCl or the JNK-inhibitor (poly-)peptide of SEQ ID NO: 11. Three eyes from separate rats were collected per group and used for immunohistochemistry.
Immunostaining of the JNK-inhibitor (poly-)peptide of SEQ ID NO: 11 was performed on healthy and uveitic eyes to study its ocular biodistribution after systemic or local administration. Briefly, sections were permeabilized as described above before being sequentially incubated with an anti- SEQ ID NO: 11 purified rabbit IgG and a secondary Alexa 594 (red)-conjugated goat anti-rabbit IgG (Invitrogen, Cergy Pontoise, France) diluted 1:100 and 1:250 in PBS respectively. Immunostaining of untreated healthy and uveitic eyes were used as negative controls. Nuclei were stained with DAPI before mounting and observation.

CC(C)C[C@@H](NC(=O)[C@@H](Cc1ccccc1)NC(=O)[C@H]1CCCN1C(=O)[C@@H](CCC(N)=O)NC(=O)[C@H](NC(=O)[C@H]1CCCN1C(=O)[C@@H](CCCNC(=N)N)NC(=O)[C@@H](CO)NC(=O)[C@@H](CCC(N)=O)NC(=O)[C@H](N)CC(=O)O)C(C)C)C(=O)N[C@H](CC(N)=O)C(=O)N[C@H](CC(C)C)C(=O)N[C@@H](C(=O)N[C@@H](C(=O)N1CCC[C@@H]1C(=O)N[C@H](CCCNC(=N)N)C(=O)N[C@H](CCCCN)C(=O)N1CCC[C@@H]1C(=O)N[C@H](CCCNC(=N)N)C(=O)N1CCC[C@@H]1C(=O)N1CCC[C@@H]1C(=O)N[C@H](CCCNC(=N)N)C(=O)N[C@H](CCCNC(=N)N)C(=O)N[C@H](CCCNC(=N)N)C(=O)N[C@H](CCC(N)=O)C(=O)N[C@H](CCCNC(=N)N)C(=O)N[C@H](CCCNC(=N)N)C(=O)N[C@H](CCCCN)C(=O)N[C@H](CCCCN)C(=O)N[C@H](CCCNC(=N)N)C(=O)NCC(=O)O)[C@H](C)O)[C@H](C)O [SEQ ID NO: 11]
Phosphorylation of c-Jun on Ser63 and Ser73 residues ([1]; RPE/ choroid extracts, 24 hours after intravenous or intravitreous injection): reduced
relative band intensity for phospho c-Jun in comparison to tubulin (densitometry) ([1]; RPE/ choroid, 24 hours after IV (20 µg/kg)): 0.28 ± 0.01
relative band intensity for phospho c-Jun in comparison to tubulin (densitometry) ([1]; RPE/ choroid, 24 hours after IVT (0.2 µg/injection)): 0.35 ± 0.08
decrease in c-Jun phosphorylation ([1]; RPE/ choroid, after IV or IVT administration, versus vehicle): approximately 3 fold
detection of the peptide in ocular tissues ([2]; EIU eyes, 24 hours after IV injection): not detected
detection of the peptide in infiltrating inflammatory cells (iris, aqueous humor) ([2]; EIU eyes, 24 hours after IV injection, occasional cells): immunopositive
subcellular localisation of the peptide ([2]; all cell types, normal eyes after IVT administration): accumulated within the cytoplasm
immunoreactivity of the peptide in ocular tissues ([2]; normal eyes, 24 hours after systemic (IV) injection, 20 µg/kg): no signal was observed
distribution of the peptide in ocular tissues ([2]; normal rats, 24 hours after IVT administration, 0.2 µg/injection): distributed in almost all ocular tissues
distribution of the peptide in ocular tissues and resident cells ([2]; uveitic eyes, 24 hours after IVT injection): mostly found in ocular tissues like in healthy eyes and in resident cells
